Experimental data from PubChem BioAssay AID2060484 (Molecular Pharmacology Branch, DTP, NCI, 2025).
pIC50: −log10 of the molar value.

Tested on: SUM149PT spheroids with HUVEC/MSC, viability
Experiment: Anticancer human tumor SUM149PT cell line growth inhibition [GQUAD];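 note: spheroids exposed to drugs for seven days before readout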;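 for viability, T/C: percent viability relative to DMSO vehicle control taken as 100%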
Settings: for pIC50: curve of first compound; for viability, T/C: stronger effect = lower value
In short: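 Multi-cell-type spheroids of tumor cells with HUVEC and mesenchymal stem cells, treated with drug combinations. Concentrations descend in half-log steps from near clinical Cmax, or from 10 microM where Cmax is unknown; viability read-out.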

[1] = second compound 0.0316 µM, first compound 0.0316 µM
[2] = second compound 0.0316 µM, first compound 0.1 µM
[3] = second compound 0.0316 µM, first compound 0.316 µM
[4] = second compound 0.0316 µM, first compound 1 µM
[5] = second compound 0.0316 µM, first compound 3.16 µM
[6] = second compound 0.0316 µM, first compound 10 µM
[7] = second compound 0.1 µM, first compound 0.0316 µM
[8] = second compound 0.1 µM, first compound 0.1 µM
[9] = second compound 0.1 µM, first compound 0.316 µM
[10] = second compound 0.1 µM, first compound 1 µM
[11] = second compound 0.1 µM, first compound 3.16 µM
[12] = second compound 0.1 µM, first compound 10 µM
[13] = second compound 0.316 µM, first compound 0.0316 µM
[14] = second compound 0.316 µM, first compound 0.1 µM
[15] = second compound 0.316 µM, first compound 0.316 µM
[16] = second compound 0.316 µM, first compound 1 µM
[17] = second compound 0.316 µM, first compound 3.16 µM
[18] = second compound 0.316 µM, first compound 10 µM
[19] = second compound 1 µM, first compound 0.0316 µM
[20] = second compound 1 µM, first compound 0.1 µM
[21] = second compound 1 µM, first compound 0.316 µM
[22] = second compound 1 µM, first compound 1 µM
[23] = second compound 1 µM, first compound 3.16 µM
[24] = second compound 1 µM, first compound 10 µM
[25] = second compound 3.16 µM, first compound 0.0316 µM
[26] = second compound 3.16 µM, first compound 0.1 µM
[27] = second compound 3.16 µM, first compound 0.316 µM
[28] = second compound 3.16 µM, first compound 1 µM
[29] = second compound 3.16 µM, first compound 3.16 µM
[30] = second compound 3.16 µM, first compound 10 µM
[31] = second compound 10 µM, first compound 0.0316 µM
[32] = second compound 10 µM, first compound 0.1 µM
[33] = second compound 10 µM, first compound 0.316 µM
[34] = second compound 10 µM, first compound 1 µM
[35] = second compound 10 µM, first compound 3.16 µM
[36] = second compound 10 µM, first compound 10 µM

## C#Cc1c(F)ccc2cc(O)cc(-c3ncc4c(N5CC6CCC(C5)N6)nc(OCC56CCCN5CC(F)C6)nc4c3F)c12 (stereo not drawn) + Cc1[nH]c2ccc(F)cc2c1-c1nc2c3cccnc3c3ncccc3c2[nH]1
Second compound 0.0316 µM
  pIC50: 5.33
Second compound 0.1 µM
  pIC50: 5.26
Second compound 0.316 µM
  pIC50: 5.42
Second compound 1 µM
  pIC50: 5.27
Second compound 3.16 µM
  pIC50: 5.25
Second compound 10 µM
  pIC50: 5.46
[1]
  viability, T/C: 103%
[2]
  viability, T/C: 96.5%
[3]
  viability, T/C: 93%
[4]
  viability, T/C: 72%
[5]
  viability, T/C: 57.6%
[6]
  viability, T/C: 38.4%
[7]
  viability, T/C: 106%
[8]
  viability, T/C: 98.9%
[9]
  viability, T/C: 94.7%
[10]
  viability, T/C: 87.2%
[11]
  viability, T/C: 54.8%
[12]
  viability, T/C: 44.2%
[13]
  viability, T/C: 110%
[14]
  viability, T/C: 96.5%
[15]
  viability, T/C: 83.8%
[16]
  viability, T/C: 74.6%
[17]
  viability, T/C: 48.5%
[18]
  viability, T/C: 37%
[19]
  viability, T/C: 95%
[20]
  viability, T/C: 90%
[21]
  viability, T/C: 87.3%
[22]
  viability, T/C: 76.5%
[23]
  viability, T/C: 55.9%
[24]
  viability, T/C: 42.6%
[25]
  viability, T/C: 96.9%
[26]
  viability, T/C: 85.2%
[27]
  viability, T/C: 83.7%
[28]
  viability, T/C: 76.2%
[29]
  viability, T/C: 52.9%
[30]
  viability, T/C: 45%
[31]
  viability, T/C: 102%
[32]
  viability, T/C: 82.3%
[33]
  viability, T/C: 88.2%
[34]
  viability, T/C: 60.2%
[35]
  viability, T/C: 52.2%
[36]
  viability, T/C: 35.6%

## COc1cc(C2c3cc4c(cc3C(OC3OC5COC(C)OC5C(O)C3O)C3COC(=O)C23)OCO4)cc(OC)c1O (stereo not drawn) + Cc1[nH]c2ccc(F)cc2c1-c1nc2c3cccnc3c3ncccc3c2[nH]1
Second compound 0.0316 µM
  pIC50: 6.06
Second compound 0.1 µM
  pIC50: 6.26
Second compound 0.316 µM
  pIC50: 6.11
Second compound 1 µM
  pIC50: 6.08
Second compound 3.16 µM
  pIC50: 6.09
Second compound 10 µM
  pIC50: 6.22
[1]
  viability, T/C: 102%
[2]
  viability, T/C: 86.1%
[3]
  viability, T/C: 56.3%
[4]
  viability, T/C: 49.9%
[5]
  viability, T/C: 38.5%
[6]
  viability, T/C: 18.4%
[7]
  viability, T/C: 105%
[8]
  viability, T/C: 77.7%
[9]
  viability, T/C: 50.7%
[10]
  viability, T/C: 47.1%
[11]
  viability, T/C: 36.8%
[12]
  viability, T/C: 18.5%
[13]
  viability, T/C: 93.2%
[14]
  viability, T/C: 82.3%
[15]
  viability, T/C: 54.4%
[16]
  viability, T/C: 46.9%
[17]
  viability, T/C: 38.2%
[18]
  viability, T/C: 15.4%
[19]
  viability, T/C: 97.6%
[20]
  viability, T/C: 84.4%
[21]
  viability, T/C: 51.3%
[22]
  viability, T/C: 54%
[23]
  viability, T/C: 36.5%
[24]
  viability, T/C: 13.5%
[25]
  viability, T/C: 88.2%
[26]
  viability, T/C: 77.3%
[27]
  viability, T/C: 58.2%
[28]
  viability, T/C: 49.3%
[29]
  viability, T/C: 33.3%
[30]
  viability, T/C: 12.9%
[31]
  viability, T/C: 81.9%
[32]
  viability, T/C: 74.7%
[33]
  viability, T/C: 48.2%
[34]
  viability, T/C: 49.4%
[35]
  viability, T/C: 33.5%
[36]
  viability, T/C: 14.3%

## COc1cccc2c1C(=O)c1c(O)c3c(c(O)c1C2=O)CC(O)(C(=O)CO)CC3OC1CC(N)C(O)C(C)O1 (stereo not drawn) + Cc1[nH]c2ccc(F)cc2c1-c1nc2c3cccnc3c3ncccc3c2[nH]1
Second compound 0.0316 µM
  pIC50: 6.69
Second compound 0.1 µM
  pIC50: 6.69
Second compound 0.316 µM
  pIC50: 6.72
Second compound 1 µM
  pIC50: 6.70
Second compound 3.16 µM
  pIC50: 6.77
Second compound 10 µM
  pIC50: 6.84
[1]
  viability, T/C: 91.3%
[2]
  viability, T/C: 62.5%
[3]
  viability, T/C: 44.3%
[4]
  viability, T/C: 19.1%
[5]
  viability, T/C: 2.87%
[6]
  viability, T/C: 0.48%
[7]
  viability, T/C: 91.1%
[8]
  viability, T/C: 62.1%
[9]
  viability, T/C: 45.2%
[10]
  viability, T/C: 16.8%
[11]
  viability, T/C: 2.57%
[12]
  viability, T/C: 1.39%
[13]
  viability, T/C: 84.3%
[14]
  viability, T/C: 60.2%
[15]
  viability, T/C: 43%
[16]
  viability, T/C: 18.9%
[17]
  viability, T/C: 3.58%
[18]
  viability, T/C: 1.15%
[19]
  viability, T/C: 94.7%
[20]
  viability, T/C: 61.9%
[21]
  viability, T/C: 44.7%
[22]
  viability, T/C: 19.4%
[23]
  viability, T/C: 2.12%
[24]
  viability, T/C: 1.25%
[25]
  viability, T/C: 82.6%
[26]
  viability, T/C: 58.5%
[27]
  viability, T/C: 40.8%
[28]
  viability, T/C: 16.7%
[29]
  viability, T/C: 4.43%
[30]
  viability, T/C: 1.38%
[31]
  viability, T/C: 90.3%
[32]
  viability, T/C: 54%
[33]
  viability, T/C: 39.5%
[34]
  viability, T/C: 15.7%
[35]
  viability, T/C: 3.44%
[36]
  viability, T/C: 0.4%

## Nc1ccn(C2OC(CO)C(O)C2(F)F)c(=O)n1 (stereo not drawn) + Cc1[nH]c2ccc(F)cc2c1-c1nc2c3cccnc3c3ncccc3c2[nH]1
Second compound 0.0316 µM
  pIC50: 7.12
Second compound 0.1 µM
  pIC50: 7.08
Second compound 0.316 µM
  pIC50: 7.19
Second compound 1 µM
  pIC50: 7.12
Second compound 3.16 µM
  pIC50: 7.16
Second compound 10 µM
  pIC50: 7.27
[1]
  viability, T/C: 82.8%
[2]
  viability, T/C: 39.7%
[3]
  viability, T/C: 22.1%
[4]
  viability, T/C: 20.7%
[5]
  viability, T/C: 17%
[6]
  viability, T/C: 14.1%
[7]
  viability, T/C: 69%
[8]
  viability, T/C: 46.4%
[9]
  viability, T/C: 19%
[10]
  viability, T/C: 17.5%
[11]
  viability, T/C: 16%
[12]
  viability, T/C: 13.9%
[13]
  viability, T/C: 70.4%
[14]
  viability, T/C: 37.5%
[15]
  viability, T/C: 21.6%
[16]
  viability, T/C: 18.7%
[17]
  viability, T/C: 17.5%
[18]
  viability, T/C: 12%
[19]
  viability, T/C: 77.1%
[20]
  viability, T/C: 41.1%
[21]
  viability, T/C: 24.7%
[22]
  viability, T/C: 21%
[23]
  viability, T/C: 17.1%
[24]
  viability, T/C: 12.1%
[25]
  viability, T/C: 75.8%
[26]
  viability, T/C: 37.5%
[27]
  viability, T/C: 20.8%
[28]
  viability, T/C: 18.7%
[29]
  viability, T/C: 15.3%
[30]
  viability, T/C: 12%
[31]
  viability, T/C: 62.8%
[32]
  viability, T/C: 35.3%
[33]
  viability, T/C: 19.9%
[34]
  viability, T/C: 22.1%
[35]
  viability, T/C: 15.6%
[36]
  viability, T/C: 11.6%
